Tests used:
22Rv1 = assay: In vitro proliferation, larger panel (Example 14); format: cell-based; conditions: Homo sapiens, Table III
From the text: Results are depicted in Table III.

MiaPaca2 = assay: Cell cycle arrest, propidium iodide staining; format: cell-based; conditions: 24 hours, different concentrations
Protocol: Apoptosis can occur at the G1/S or G2/M transition of the cell cycle. Cells were treated with CB-03-10 for 24 hours then fixed with paraformaldehyde and stained with propidium iodide. […] The lack of G1 block indicates no effect on p53. The S & G2/M blocks may indicate activity on cell cycle check point molecules. For S phase, a possible target is the cyclin dependent kinase 2 (CDK2). Gemzar and cisplatin are example drugs that act in S phase. For G2, a possible target is CDK1.

## C[C@]12CCC(=O)C=C1CC[C@@H]1[C@@H]2CC[C@@]2(C)[C@H]1CC[C@]2(OC(=O)c1ccccc1)C(=O)CO [CB-03-06, cortexolone 17α-benzoate]
22Rv1
  IC50: 25 µM
MiaPaca2
  cell cycle arrest: induces an S phase block at lower concentrations then a G2/M block at higher concentration

Reference: patent US10231980B2, “Cortexolone 17alpha-benzoate for use in the treatment of tumours” (COSMO TECHNOLOGIES LTD., priority 2014, dated 2019)
